Assay results taken from patent US10039846B2, “Compositions targeting bradykinin receptor B1 for medical imaging of cancer and other disorders” (BRITISH COLUMBIA CANCER AGENCY BRANCH, priority 2012, dated 2018).
Values joined by “and” are separate entries in the source; they are usually repeats but may differ in a detail not shown here. Equal values may be shown once. Read-outs that look alike come from different tables or passages of the source. Blank lines part the entries; values can stand above or below the compound they belong to. Where a SMILES comes first, the peptide text is derived from it. Where no end group is shown, it is not given here. [ ]: non-standard residue; d: D form. The star is where a group is joined. DOTA = O=C(O)CN1CCN(CC(=O)O)CCN(CC(=O)*)CCN(CC(=O)O)CC1; Hyp = O=C(O)[C@@H]1C[C@@H](O)CN1; Cha = N[C@@H](CC1CCCCC1)C(=O)O; PEG2 = NCCOCCOCCC(=O)O; Ahx = NCCCCCC(=O)O; Sar = CNCC(=O)O

How the values were obtained:
B1R [1] = molecular target: T1, B1R (Homo sapiens, UniProt P46663); assay: Competitive binding assay with 3H radioligand on CHO-K1 cell membranes over-expressing human B1R; set-up: purchased Perkin Elmer Inc., Waltham, Mass; ES-091-M400UA; host or cells: CHO-K1 cells over-expressing human B1R (membrane preparation)
T1 sequence (P46663 1-353): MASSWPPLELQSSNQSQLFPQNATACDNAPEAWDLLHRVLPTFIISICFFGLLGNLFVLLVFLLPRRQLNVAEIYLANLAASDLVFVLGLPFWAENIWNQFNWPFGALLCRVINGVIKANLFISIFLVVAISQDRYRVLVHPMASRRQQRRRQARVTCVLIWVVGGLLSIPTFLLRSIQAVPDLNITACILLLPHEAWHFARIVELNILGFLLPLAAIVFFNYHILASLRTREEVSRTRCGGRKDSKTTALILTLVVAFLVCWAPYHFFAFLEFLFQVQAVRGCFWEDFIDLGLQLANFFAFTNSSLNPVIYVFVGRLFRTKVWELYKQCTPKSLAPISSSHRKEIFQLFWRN
Method: The ability of the peptide and small molecule B1R targeting compounds to bind to B1R was assessed in competitive binding assay as described below.
Preparation of Cell Membranes: Ready to use cell membranes (12.5 μg/μL) from CHO-K1 cells over-expressing human B1R were obtained from Perkin Elmer Inc., Waltham, Mass. (cat. no. ES-091-M400UA). Binding using cell membranes from HEK293T::GFP::hB1R (from Example 3) was also tested. In the latter case, the membranes were prepared as follows: 90% confluent cells grown in large flask, T225, were detached and pelleted in a 50 mL conical tube using centrifuge at 1,200 rpm for 5 minutes. Afterward, cells were re-suspended in 20-30 mL of cold 50 mM Tris-HCl pH 7.4. Ice cold cells were disrupted for 15 seconds at 15,000 rpm with a Polytron PT3100 (Kinematica AG, Lucerne, Switzerland). The solution was aliquoted and centrifuged at 4° C. at 17,000×g for 30 minutes. The supernatant was discarded, and then the pellet was dissolved in 1-2 mL of cold salt solution containing 50 mM Tris-HCl pH 7.4 and 100 mM NaCl and incubated for 1 hour on ice. The cell membranes were pelleted by centrifugation at 4° C. at 17,000×g for 30 minutes and resuspended in 200-600 μL of 50 mM Tris-HCl pH 7.4. The cell membrane extract was stored at −80° C. Protein concentration was determined by Bradford assay (cat. no. R1271, Fermentas, Thermo Fisher Scientific, Burlington, ON). 50 ug of cell membranes per well was used for the competitive binding assay. […] Radio-labelled control was H-3 labelled [Leu^9,des-Arg^10] kallidin obtained either from American Radiolabelled Chemicals Inc, St. Louis, Mo.
Competitive Binding Assays: Assays were performed using 96-well MultiScreenHTS with glass fiber filter and PVDF support obtained from Millipore Corp, Billerica, Mass. (cat. no. MSFB N6B, lot no. R8AN42424). Wells of the MultiScreen plate were pre-soaked with 0.5% of cold Poly(ethyleneimine) (PEI) (cat. no. P3143, Sigma-Aldrich, St. Louis, Mo.) for 30 minutes. Afterward, wells were washed once with 50 mM of Tris-HCl pH 7.4. Total volume per wells was 200 μL. A fixed concentration of the hot radioligand (1, 3, 5 or 12.5 nM depending on the radioligand; see Table 5) was incubated with progressively higher concentrations (10^−11 to 10^−4 M) of the non-radioactive competitor of interest in the presence of cell membranes (50 μg/well) and the assay buffer (50 mM Tris-HCl pH 7.4, 5 mM MgCl2). The MultiScreen plate was then incubated at 27° C. for 15 minutes with agitation at 300 rpm. The assay was stopped by suctioning the reaction solution through the bottom PVDF membrane filter and discarded. The membranes were washed 7× with 150 μL/well of cold 50 mM Tris-HCl pH 7.4. Radioactivity was counted using 1450 MicroBeta TriLux—Microplate Scintillation and Luminescence Counter (Perkin Elmer Inc., Shelton, Conn.).

[2] = system: HEK-293 and HEK-293/BKRB1 tumours; details: mouse
Method: (§2) For in vivo imaging, HEK-293 and HEK-293 cells stably transfected with the human bradykinin receptor B1 (HEK-293/BKRB1) were inoculated in the flank of immunodeficient mice (NODSCID IL2rKO). […] A computer tomography image of the mouse was obtained for organ localization and attenuation correction, followed by PET imaging, using a Siemens Inveon multimodality preclinical scanner. Images were acquired over 10-15 minutes for each animal.

[3] = system: HEK-293 and HEK-293/BKRB1 tumours; assay: PET/CT imaging of 68Ga-labelled peptides in tumour-bearing mice; details: PET/CT 60 minutes after intravenous injection
Method: as §2

in vivo = details: NODSCID/IL2RKO, mouse, total radioactivity
Method: (§1) ^68Ga labeling of Peptide 4 was performed in NaOAc buffer (pH 4.1) at 110° C. for 10 min, and [^68Ga]P03083 was purified by HPLC. PET imaging and biodistribution studies were performed in NODSCID/IL2RKO mice bearing both B1R-negative HEK293T:GFP tumour and B1R-positive HEK293T:hB1R tumour.

[4] = system: B1R-negative HEK293T:GFP tumour and B1R-positive HEK293T:hB1R tumour; assay: in vivo; details: mouse
Method: as §1

B1R [5] = molecular target: T1, B1R; details: Cote et al, Peptides 2009; cited from earlier work
B2R = molecular target: T2, B2R (Homo sapiens, UniProt P30411); details: Cote et al, Peptides 2009; cited from earlier work
T2 sequence (P30411 1-391): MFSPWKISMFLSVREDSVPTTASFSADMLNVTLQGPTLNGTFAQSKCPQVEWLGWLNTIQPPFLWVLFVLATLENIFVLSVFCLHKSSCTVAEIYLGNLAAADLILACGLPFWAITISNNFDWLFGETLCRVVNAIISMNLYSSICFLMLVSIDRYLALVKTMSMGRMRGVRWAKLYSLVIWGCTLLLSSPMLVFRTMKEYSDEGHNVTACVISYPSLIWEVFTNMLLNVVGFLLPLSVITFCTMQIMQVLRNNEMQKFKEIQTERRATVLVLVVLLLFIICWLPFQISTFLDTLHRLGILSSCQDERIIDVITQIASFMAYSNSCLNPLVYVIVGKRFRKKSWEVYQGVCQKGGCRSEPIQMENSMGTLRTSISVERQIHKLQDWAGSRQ

Ki (B1R [1]; Hot 4.6 nM BK-ANT-ARC, CHO-K1 membranes, individual assays, read-out: Ki): 17.1 nM and 16 nM
Ki (B1R [1]; text of Example 5, referring to Example 4, read-out: binding affinity for B1R): 32.8 nM
background activity ([2]; in vivo, iv): very low background activity
clearance route ([2]; in vivo, iv): renal and bladder clearance
Compound: CC(C)C[C@H](NC(=O)[C@@H]1CCCN1C(=O)[C@H](CO)NC(=O)[C@H](CC1CCCCC1)NC(=O)CNC(=O)[C@@H]1C[C@@H](O)CN1C(=O)[C@@H]1CCCN1C(=O)[C@H](CCCNC(=N)N)NC(=O)[C@H](CCCCN)NC(=O)CCOCCOCCNC(=O)CN1CCN(CC(=O)O)CCN(CC(=O)O)CCN(CC(=O)O)CC1)C(=O)O [Peptide 3, Ga-DOTA-PEG2-Lys-Arg-Pro-Hyp-Gly-Cha-Ser-Pro-Leu] ({DOTA-PEG2}-KRP[Hyp]G[Cha]SPL-OH)

Compound: CC(C)C[C@H](NC(=O)[C@@H]1CCCN1C(=O)[C@H](CO)NC(=O)[C@H](CC1CCCCC1)NC(=O)CNC(=O)[C@@H]1C[C@@H](O)CN1C(=O)[C@@H]1CCCN1C(=O)[C@H](CCCNC(=N)N)NC(=O)[C@H](CCCCN)NC(=O)CNC(=O)CNC(=O)CN1CCN(CC(=O)O)CCN(CC(=O)O)CCN(CC(=O)O)CC1)C(=O)O [Peptide 8, Ga-DOTA-Gly-Gly-Lys-Arg-Pro-Hyp-Gly-Cha-Ser-Pro-Leu] ({DOTA}-GGKRP[Hyp]G[Cha]SPL-OH)
clearance route [3]: predominantly via the kidneys and bladder
uptake / visualization of B1R+ tumour [3]: good visualization of B1R+ expressing cells
uptake in negative control (B1R-) tumour [3]: essentially negligible non-specific uptake

in vivo stability [2]: much greater in vivo stability
background activity ([2]; in vivo, iv): lower background uptake
Compound: CC(C)C[C@H](NC(=O)[C@@H]1CCCN1C(=O)[C@H](CO)NC(=O)[C@H](CC1CCCCC1)NC(=O)CNC(=O)[C@@H]1C[C@@H](O)CN1C(=O)[C@@H]1CCCN1C(=O)[C@H](CCCNC(=N)N)NC(=O)[C@H](CCCCN)NC(=O)CCCCCNC(=O)CN1CCN(CC(=O)O)CCN(CC(=O)O)CCN(CC(=O)O)CC1)C(=O)O [Peptide 10, Ga-DOTA-Ahx-Lys-Arg-Pro-Hyp-Gly-Cha-Ser-Pro-Leu] ({DOTA-Ahx}-KRP[Hyp]G[Cha]SPL-OH)

background activity [3]: minimal background activity
uptake / visualization of B1R+ tumour [3]: Slightly higher tumour uptake
uptake in negative control (B1R-) tumour [3]: no non-specific tumour uptake
Compound: N=C(N)NCCC[C@H](NC(=O)[C@H](CCCCN)NC(=O)CCCCCNC(=O)CN1CCN(CC(=O)O)CCN(CC(=O)O)CCN(CC(=O)O)CC1)C(=O)N1CCC[C@H]1C(=O)N1C[C@H](O)C[C@H]1C(=O)NCC(=O)N[C@@H](CC1CCCCC1)C(=O)N[C@@H](CO)C(=O)N1CCC[C@H]1C(=O)N[C@H](Cc1ccccc1)C(=O)O [Peptide 12, Ga-DOTA-Ahx-Lys-Arg-Pro-Hyp-Gly-Cha-Ser-Pro-(D-Phe)]
clearance route [3]: good clearance through the kidneys and bladder

tissue uptake at 1 h (in vivo; kidney uptake): 74.9 ± 29.2 %ID/g
tissue uptake at 1 h (in vivo; uptakes in both B1R-negative and B1R-positive tumors): 1.1 ± 0.4 %ID/g
specific uptake to B1R in tumours [4]: No specific uptake
Compound: CC(C)C[C@H](NC(=O)[C@@H]1CCCN1C(=O)[C@H](CO)NC(=O)[C@H](Cc1ccccc1)NC(=O)CNC(=O)[C@@H]1CCCN1C(=O)[C@@H]1CCCN1C(=O)[C@H](CCCNC(=N)N)NC(=O)[C@H](CCCCN)NC(=O)CCCCCNC(=O)CN1CCN(CC(=O)O)CCN(CC(=O)O)CCN(CC(=O)O)CC1)C(=O)O [[^68Ga]-Peptide 4, metal not drawn]
excretion of radioactivity [4]: mainly excreted through the renal pathway

Compound: Sar-Lys-Arg-Pro-Hyp-Gly-Cha-Ser-Pro-(D-Phe) ([Sar]KRP[Hyp]G[Cha]SP[dF])
Ki (B1R [5]): 0.06 nM
Ki (B2R): > 10000 nM
